Earlier results in patent US20110118243A1, “ANTI-INFLAMMATORY DRUG DELIVERY SYSTEM” (priority 2008, published 2011).

Settings: in horses

- Plasma half-life: 5 to 6 h
SMILES: CCCCC1C(=O)N(c2ccccc2)N(c2ccccc2)C1=O [phenylbutazone, 4-butyl-diphenyl-3,5-pyrazoidinedione]
